Common to all, as to assay type: biochemical
The target in assay [1] is T1, JAK1 (Homo sapiens (Human), UniProt P23458). The experiment in a line: Enzyme assay (LANCE Ultra ULight-JAK1 Peptide), JAK1. The note with it: ATP 100 μM.
For assay [2], the target named is T2, JAK2 (Homo sapiens (Human), UniProt O60674). The experiment in a line: Enzyme assay (LANCE Ultra ULight-JAK1 Peptide), JAK2. The note with it: ATP 100 μM.
Assay [3] has as its target T3, Tyk2 (Homo sapiens (Human), UniProt P29597). The assay can be described thus: Enzyme assay (LANCE Ultra ULight-JAK1 Peptide), Tyk2. The note with it: ATP 100 μM.
Assay [4] addresses T1, JAK1. The experiment in a line: Enzyme assay, JAK1 (Assay Example^b 1). The note with it: ATP 100 μM.
Description: (§1) JAK1, JAK2, JAK3 and Tyk2 were purchased from Carna Biosciences, Inc. As the substrate, LANCE Ultra ULight-JAK1 Peptide (manufactured by PerkinElmer Co., Ltd. (PE)) was used. Dilute solutions of compounds and enzymes in assay buffer (50 mM HEPES pH7.5, 1 mM EGTA, 1 mM MgCl2, 2 mM DTT, 0.01% Tween20) were dispensed into wells of a 384-well black plate. After 5 minutes of preincubation, dilute solutions of the substrate and ATP (adenosine triphosphate) were added at a final concentration of 100 μM, and the plate was incubated at room temperature for 2 hours. After addition of a termination reagent containing EDTA (ehylenediamine tetraacetic acid) at a final concentration of 10 mM, LANCE Eu-W1024 Anti-phosphotyrosine (PT66) (manufactured by PE) was added, and after 1 hour of incubation, the fluorescences were measured with ARVO-HTS. From the plot of logarithm of a compound concentration and inhibitory activity, the IC50 was calculated.
Assay [5] deals with T2, JAK2. The assay can be described thus: Enzyme assay, JAK2 (Assay Example^b 1). The note with it: ATP 100 μM.
Description: as §1
Assay [6] has as its target JAK3 (Homo sapiens (Human), UniProt P52333). The assay can be described thus: Enzyme assay, JAK3 (Assay Example^b 1).
Description: as §1
The target in assay [7] is T3, Tyk2. The assay can be described thus: Enzyme assay, Tyk2 (Assay Example^b 1). The note with it: ATP 100 μM.
Description: as §1

Our source for the IC50 values is US9556187B2, “Substituted pyrrolo[3′,2′:5,6]pyrido[4,3-d]pyrimidines and JAK inhibitors comprising the same” (priority 2011, dated 2017).

The structures appear in SMILES notation.

T1 sequence (P23458 whole entry): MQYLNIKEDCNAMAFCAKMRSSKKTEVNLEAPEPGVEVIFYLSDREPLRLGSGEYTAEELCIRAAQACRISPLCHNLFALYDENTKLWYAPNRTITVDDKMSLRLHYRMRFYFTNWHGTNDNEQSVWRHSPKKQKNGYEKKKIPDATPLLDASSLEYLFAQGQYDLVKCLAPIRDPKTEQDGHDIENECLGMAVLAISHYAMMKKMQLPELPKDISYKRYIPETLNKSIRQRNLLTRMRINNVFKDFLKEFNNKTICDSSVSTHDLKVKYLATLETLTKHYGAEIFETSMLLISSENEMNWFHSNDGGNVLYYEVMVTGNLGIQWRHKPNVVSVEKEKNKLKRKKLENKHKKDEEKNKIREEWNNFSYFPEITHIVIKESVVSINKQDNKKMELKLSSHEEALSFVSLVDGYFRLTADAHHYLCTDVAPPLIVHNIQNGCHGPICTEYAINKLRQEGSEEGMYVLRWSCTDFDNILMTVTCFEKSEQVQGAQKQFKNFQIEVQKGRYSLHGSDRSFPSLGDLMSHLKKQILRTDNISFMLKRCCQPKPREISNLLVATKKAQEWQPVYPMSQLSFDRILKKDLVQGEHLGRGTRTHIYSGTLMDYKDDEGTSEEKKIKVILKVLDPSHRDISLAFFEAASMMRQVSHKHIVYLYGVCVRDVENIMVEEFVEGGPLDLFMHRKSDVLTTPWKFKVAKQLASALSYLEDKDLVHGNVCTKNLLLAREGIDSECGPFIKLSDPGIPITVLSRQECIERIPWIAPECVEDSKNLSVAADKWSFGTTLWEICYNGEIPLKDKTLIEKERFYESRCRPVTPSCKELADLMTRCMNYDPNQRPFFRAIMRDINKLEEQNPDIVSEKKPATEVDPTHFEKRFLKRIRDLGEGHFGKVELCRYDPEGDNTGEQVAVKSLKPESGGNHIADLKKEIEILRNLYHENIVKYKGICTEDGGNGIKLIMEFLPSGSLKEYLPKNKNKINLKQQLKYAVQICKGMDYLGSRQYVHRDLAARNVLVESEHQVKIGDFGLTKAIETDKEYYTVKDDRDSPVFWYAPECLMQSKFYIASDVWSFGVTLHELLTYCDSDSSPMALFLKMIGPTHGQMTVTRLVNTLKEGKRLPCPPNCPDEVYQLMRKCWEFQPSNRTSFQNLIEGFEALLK
T3 sequence (P29597 whole entry): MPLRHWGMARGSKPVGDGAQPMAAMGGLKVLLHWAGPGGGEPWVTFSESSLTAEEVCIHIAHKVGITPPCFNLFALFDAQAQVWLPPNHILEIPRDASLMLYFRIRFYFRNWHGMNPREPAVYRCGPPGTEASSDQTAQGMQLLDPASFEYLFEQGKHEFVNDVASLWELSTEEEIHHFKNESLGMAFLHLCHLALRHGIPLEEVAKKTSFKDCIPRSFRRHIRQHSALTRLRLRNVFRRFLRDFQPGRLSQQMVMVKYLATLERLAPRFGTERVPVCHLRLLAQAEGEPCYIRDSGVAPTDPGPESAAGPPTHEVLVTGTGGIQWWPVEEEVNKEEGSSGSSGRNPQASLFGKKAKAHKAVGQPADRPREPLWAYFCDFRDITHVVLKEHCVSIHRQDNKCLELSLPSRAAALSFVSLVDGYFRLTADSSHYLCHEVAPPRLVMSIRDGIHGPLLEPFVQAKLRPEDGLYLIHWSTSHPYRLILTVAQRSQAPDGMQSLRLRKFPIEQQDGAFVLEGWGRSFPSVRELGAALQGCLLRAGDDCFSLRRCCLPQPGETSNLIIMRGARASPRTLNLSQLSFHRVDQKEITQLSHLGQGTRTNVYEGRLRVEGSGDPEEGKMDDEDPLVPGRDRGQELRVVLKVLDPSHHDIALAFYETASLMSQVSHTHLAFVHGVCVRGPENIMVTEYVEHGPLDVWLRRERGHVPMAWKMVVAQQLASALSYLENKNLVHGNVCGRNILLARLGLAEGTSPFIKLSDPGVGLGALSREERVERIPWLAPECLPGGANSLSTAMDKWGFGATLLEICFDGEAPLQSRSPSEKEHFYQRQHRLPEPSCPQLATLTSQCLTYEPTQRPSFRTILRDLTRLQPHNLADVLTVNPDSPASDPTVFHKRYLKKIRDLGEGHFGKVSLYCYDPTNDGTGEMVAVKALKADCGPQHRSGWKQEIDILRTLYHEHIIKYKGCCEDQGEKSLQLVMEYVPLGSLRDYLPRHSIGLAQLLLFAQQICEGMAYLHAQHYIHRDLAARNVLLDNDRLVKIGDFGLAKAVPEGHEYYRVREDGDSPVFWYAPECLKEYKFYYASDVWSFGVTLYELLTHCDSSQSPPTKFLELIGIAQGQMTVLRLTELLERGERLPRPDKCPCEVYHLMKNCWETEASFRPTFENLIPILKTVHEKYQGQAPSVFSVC
Chain of JAK3 (P52333 whole entry): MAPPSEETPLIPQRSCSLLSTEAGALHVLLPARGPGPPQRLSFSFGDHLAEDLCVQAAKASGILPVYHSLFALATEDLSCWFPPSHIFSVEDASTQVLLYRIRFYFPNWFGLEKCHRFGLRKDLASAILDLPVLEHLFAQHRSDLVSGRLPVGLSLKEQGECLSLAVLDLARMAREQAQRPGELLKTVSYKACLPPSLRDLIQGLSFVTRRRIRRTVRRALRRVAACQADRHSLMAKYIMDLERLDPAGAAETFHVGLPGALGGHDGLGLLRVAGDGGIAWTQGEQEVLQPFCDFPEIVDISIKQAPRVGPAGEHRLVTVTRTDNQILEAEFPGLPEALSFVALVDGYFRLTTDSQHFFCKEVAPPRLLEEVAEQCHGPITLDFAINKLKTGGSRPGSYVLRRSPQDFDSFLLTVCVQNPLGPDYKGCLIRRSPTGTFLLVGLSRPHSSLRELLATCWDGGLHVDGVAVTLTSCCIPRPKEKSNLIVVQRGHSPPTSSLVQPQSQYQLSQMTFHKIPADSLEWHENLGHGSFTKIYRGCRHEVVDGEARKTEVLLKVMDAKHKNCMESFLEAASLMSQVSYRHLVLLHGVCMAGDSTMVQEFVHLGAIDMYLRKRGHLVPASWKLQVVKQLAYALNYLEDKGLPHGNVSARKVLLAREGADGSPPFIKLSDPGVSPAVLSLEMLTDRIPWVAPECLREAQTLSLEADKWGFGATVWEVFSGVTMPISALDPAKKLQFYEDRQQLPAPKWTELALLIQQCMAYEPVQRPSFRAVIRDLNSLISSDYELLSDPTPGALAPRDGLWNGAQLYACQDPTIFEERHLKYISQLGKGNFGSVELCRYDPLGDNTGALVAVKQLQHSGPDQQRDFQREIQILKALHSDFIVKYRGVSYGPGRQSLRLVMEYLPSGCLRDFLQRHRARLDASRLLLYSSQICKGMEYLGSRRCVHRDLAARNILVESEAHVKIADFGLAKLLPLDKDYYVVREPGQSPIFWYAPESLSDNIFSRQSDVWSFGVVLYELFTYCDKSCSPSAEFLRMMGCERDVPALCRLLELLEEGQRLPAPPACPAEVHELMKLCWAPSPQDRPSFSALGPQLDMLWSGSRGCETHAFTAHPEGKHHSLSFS

For the molecule `Brc1nc(CN2CCC(c3nnn4cnc5[nH]ccc5c34)CC2)sc1Br` [Ex 233], the IC50 in assay [1] (Synthetic Examples^a) came out at 0.021 µM; in assay [2] (Synthetic Examples^a), 0.071 µM.

Regarding `CC1(C)CCC(c2nnn3cnc4[nH]ccc4c23)CC1` [Ex 64], the IC50 in assay [1] came out at 0.033 µM; in assay [2], 0.12 µM; in assay [3] it was 0.31 µM; in assay [4], 0.012 µM.

Turning to `C[C@@H]1CCN(C)C[C@@H]1n1ccc(=O)c2cnc3[nH]ccc3c21` (racemic) [Synthetic Example^b 6b, rac-1-[(3R,4R)-1,4-Dimethylpiperidin-3-yl]-1H-pyrrolo[2,3-h][1,6]naphthyridin-4(7H)-one], the IC50 in assay [5] is 0.38 µM; in assay [6] it was 250 nM; in assay [7], 3.9 µM.

In the case of `CC(c1ccccc1)N1CCC(c2nnn3cnc4[nH]ccc4c23)CC1` (racemic) [Ex 245], the IC50 came to 0.017 µM in assay [1] (Synthetic Examples^a) and 0.062 µM in assay [2] (Synthetic Examples^a).

For the molecule `C[C@@H]1CCN(Cc2cccc(F)c2F)C[C@@H]1n1ccc(=O)c2cnc3[nH]ccc3c21` (racemic) [Synthetic Example^b 6a, rac-1-[(3R,4R)-1-(2,3-Difluorobenzyl)-4-methylpiperidin-3-yl]-1H-pyrrolo[2,3-h][1,6]naphthyridin-4(7H)-one], the concentration for half-maximal inhibition (IC50) in assay [6] was 31 nM.

As to `c1ccc2sc(CN3CCC(c4nnn5cnc6[nH]ccc6c45)CC3)nc2c1` [Ex 232], the IC50 in assay [1] (Synthetic Examples^a) is 0.0053 µM; in assay [2] (Synthetic Examples^a) it was 0.033 µM; in assay [3] (Synthetic Examples^a), 0.74 µM.
